# Experiments:
# [1] = cited from earlier work
# [2] = Stabilization experiments with LECIGON, accelerated stability study at 25° C. for 12 days; format: physicochemical; conditions: all combinations of Table 6
# Procedure: HPLC—Agilent 1100 with DAD detector and cooled injector; OpenLAB CDS Chemstation C.01.05 (Agilent Technologies Inc., Santa Clara, Calif., U.S.A.).
# As reference product, LECIGON™ having no stabilizing modification was used.
# The following stabilizing modifications of the LECIGON™ composition were tested, the corresponding experimental compositions (“Exp.”) in Table 4 above being given within parentheses:
# • a) 0.1% ascorbic acid (Exp. 5) • b) 0.5% citrate buffer (Exp. 12) • c) 0.5% citric acid (Exp. 4) 3. Removal of oxygen • nitrogen gas (Exp. 15) 4. Removal of metal ions • 0.05% EDTA (Exp. 3) 5. Combination of reduced pH and anti-oxidant (Exp. 13) 6. Combination of anti-oxidant and removal of oxygen • a) 0.1% ascorbic acid and 0.05% EDTA (Exp. 14) • b) 0.5% citric acid and 0.05% EDTA (Exp. 10) 7. Enclosure in an aluminium bag (Exp. 8).
# The results are ranked with respect to reduction of hydrazine (DHPA, RRT 7.1). […] Levodopa was stable in all combinations and is therefore not included in the table. In the table, “Carb” is carbidopa, and “Ent” is entacapone.
# [3] = cited from earlier work; remark: listed apart in the source
# [4] = intravenous administration (3 mg/kg); cited from earlier work
Structure (SMILES),solubility in water [1],Stability of levodopa in the gel combinations [2],metabolized to dopamine before levodopa reaches the brain ([3]; intake of levodopa alone),"bioavailability ([3]; levodopa via DUODOPA gel, same as in a tablet)",elimination half-life (t1/2β) [4] [h]
"C[C@@](Cc1ccc(O)c(O)c1)(NN)C(=O)O [Carbidopa, (−)-L-α-hydrazino-α-methyl-β-(3,4-dihydroxybenzene) propanoic acid monohydrate]",slightly soluble in water,–,–,–,–
"N[C@@H](Cc1ccc(O)c(O)c1)C(=O)O [Levodopa, (−)-L-α-amino-β-(3,4-dihydroxybenzene) propanoic acid]",slightly soluble in water,stable,more than 90%,81-98%,–
"Cc1ccc(C(=O)c2cc(O)c(O)c([N+](=O)[O-])c2)cc1 [Tolcapone, (3,4-Dihydroxy-5-nitrophenyl)(4-methylphenyl)methanone]",–,–,–,–,2.9

# From patent publication US10555922B2, “Method of treating a dopamine related disorder in a subject by administering levodopa, in combination with a dopamine decarboxylase inhibitor and a catechol-o-methyltransferase inhibitor” (priority 2015, dated 2020)
